Source: patent publication US5405861A, “Triazole compounds and antifungal compositions thereof” (Takeda Chemical Industries, Co., Ltd., priority 1989, dated 1995)
Structures can show the parent of a compound that is named as a salt. Where two headings read alike, the source gives them in different places.

Columns and labels:
[1] = system: Candida albicans; assay: Infection-preventing effect in experimental infection in mice, Method 1 (Table 7-1); assay type: in vivo, Crj:CDF1 mice; conditions: Candida albicans, 168 h, given 0 and 2 hours after infection, survival 7 days after infection, total dose, read-out: ED50
Method: Method 1 (Table 7-1): To 5-week-old Crj:CDF1 mice the minimum lethal dose of Candida albicans was inoculated intravenously. The test drug was given twice 0 and 2 hours after infection. The effectiveness of the drug was expressed in ED50 values calculated by the Reed and Muench method from the survival rate 7 days after infection. The ED50 values were calculated based on the total dose given on the two occasions.

[2] = system: Candida albicans (IFO 0538); assay: Antifungal activity against Candida albicans, paper disc growth inhibition zone (Tables 5 and 6); assay type: cell-based; conditions: 28° C., 2 days incubation; for zone of inhibition at 1000 µg/mL: 48 h, read-out: Inhibition zone diameter
Method: The antifungal activities of the compounds (I) were evaluated by the following method: a sheet of filter paper disc (manufactured by Toyo Seisakusho, 8 mm in diameter) soaked in a 1000 μg/ml solution of a compound (I) in methanol was placed on an agar plate, which was incubated at 28° C. for 2 days, and the diameter of the growth inhibition zone around the filter paper disc was measured. The following culture media were used:
A: yeast nitrogen base agar medium
B: yeast nitrogen base agar medium (pH 7.0)

[3] = pH 7, B medium (yeast nitrogen base agar, pH 7.0)
[4] = A medium (yeast nitrogen base agar)

Structure (SMILES)	ED50 ([1]; sc, s.c.)	zone of inhibition at 1000 µg/mL [2, 3]	further results
C[C@H](S)[C@](O)(Cn1cncn1)c1ccc(F)cc1F (racemic) [Compound 60, (2RS,3SR)-2-(2,4-difluorophenyl)-3-mercapto-1-(1H-1,2,4-triazol-1-yl)-2-butanol]	> 4 mg/kg	30 mm	
OC(CSCCSCCn1cncn1)(Cn1cncn1)c1ccc(F)cc1F (centres unmarked) [Compound 21]		20 mm	
CC(C)C(=O)S[C@H](C)[C@](O)(Cn1cncn1)c1ccc(F)cc1F [Compound 62, (2R,3R)-2-(2,4-difluorophenyl)-3-isobutyrylthio-1-(1H-1,2,4-triazol-1-yl)-2-butanol]	0.5 mg/kg	45 mm	ED50 ([1]; po, p.o.): 0.35 mg/kg
Cc1nc(CS[C@H](C)[C@](O)(Cn2cncn2)c2ccc(F)cc2F)cs1 (relative stereo) [Compound 52]	2 mg/kg	35 mm	
CSc1nnc(CS[C@H](C)[C@](O)(Cn2cncn2)c2ccc(F)cc2F)n1C (relative stereo) [Compound 34]	3.2 mg/kg	30 mm	
C[C@@H](SCc1nccs1)[C@](O)(Cn1cncn1)c1ccc(F)cc1F (relative stereo) [Compound 38]		47 mm	
C[C@@H](SCc1cncn1C)[C@](O)(Cn1cncn1)c1ccc(F)cc1F (racemic) [Compound 29, (2RS,3RS)-2-(2,4-difluorophenyl)-3-(1-methylimidazol-5-yl)methylthio-1-(1H-1,2,4-triazol-1-yl)-2-butanol]	0.71 mg/kg	38 mm	
C[C@@H](SCc1nccn1CC(F)(F)F)[C@](O)(Cn1cncn1)c1ccc(F)cc1F (relative stereo) [Compound 49]	1 mg/kg	25 mm	
Cc1oc(=O)oc1CS[C@H](C)[C@](O)(Cn1cncn1)c1ccc(F)cc1F [Compound 111]	0.71 mg/kg	35 mm	ED50 ([1]; po, p.o.): 0.89 mg/kg
CC(=O)S[C@H](C)[C@](O)(Cn1cncn1)c1ccc(F)cc1F (relative stereo) [Compound 40]	0.35 mg/kg	50 mm	
C[C@@H](SCCSCCn1cncn1)[C@](O)(Cn1cncn1)c1ccc(F)cc1F (relative stereo) [Compound 22]		25 mm	
C[C@@H](SCc1nccn1CC(F)(F)C(F)F)[C@](O)(Cn1cncn1)c1ccc(F)cc1F (relative stereo) [Compound 30]		40 mm	
C[C@@H](SCCn1cncn1)[C@](O)(Cn1cncn1)c1ccc(F)cc1F (relative stereo) [Compound 13]			zone of inhibition at 1000 µg/mL [2, 4]: 34 mm
CC(n1cncn1)C(O)(CS)c1ccc(F)cc1F (single isomer, unassigned) [Compound 115, 2-(2,4-difluorophenyl)-1-mercapto-3-[(1H)-1,2,4-triazol-1-yl]-2-butanol]	> 4 mg/kg	33 mm	
Cn1ccnc1SCCSCC(O)(Cn1cncn1)c1ccc(F)cc1F (centres unmarked) [Compound 18]		25 mm	
CCn1ccnc1CS[C@H](C)[C@](O)(Cn1cncn1)c1ccc(F)cc1F (relative stereo) [Compound 46]	0.7 mg/kg	27 mm	
C[C@@H](SCc1ncnn1C)[C@](O)(Cn1cncn1)c1ccc(F)cc1F (relative stereo) [Compound 31]	0.71 mg/kg	40 mm	
C[C@@H](SCc1nncn1C)[C@](O)(Cn1cncn1)c1ccc(F)cc1F [Compound 95]		28 mm	
Cc1nc(CS[C@H](C)[C@](O)(Cn2cncn2)c2ccc(F)cc2F)sc1C (relative stereo) [Compound 36]	3.2 mg/kg	45 mm	
C[C@@H](SCc1cn2ccccc2n1)[C@](O)(Cn1cncn1)c1ccc(F)cc1F (relative stereo) [Compound 27]		45 mm	
C[C@@H](SCc1nccn1CC(F)(F)C(F)F)[C@](O)(Cn1cncn1)c1ccc(F)cc1F (relative stereo) [30(hydrochloride)]	0.88 mg/kg		
OC(CSCCn1cncn1)(Cn1cncn1)c1ccc(F)cc1F (centres unmarked) [Compound 2]	19.3 mg/kg	17 mm	zone of inhibition at 1000 µg/mL [2, 4]: 18 mm
Cc1oc(=O)oc1CS[C@H](C)[C@](O)(Cn1cncn1)c1ccc(F)cc1F (racemic) [Compound 56, (2RS,3RS)-2-(2,4-difluorophenyl)-3-(5-methyl-2-oxo-1,3-dioxol-4-yl)methylthio-1-(1H-1,2,4-triazol-1-yl)-2-butanol]	2 mg/kg	30 mm	
CC(SCC(O)(Cn1cncn1)c1ccc(F)cc1F)c1ccncc1 (centres unmarked) [Compound 10]	35.4 mg/kg		Inhibition zone diameter [2, 4]: 21 mm
C[C@@H](SCc1ncc2cnccn12)[C@](O)(Cn1cncn1)c1ccc(F)cc1F (relative stereo) [Compound 57, (2RS,3RS)-2-(2,4-difluorophenyl)-3-(imidazo[1,5-a]pyradin-3-yl)methylthio-1-(1H-1,2,4-triazol-1-yl)-2-butanol]	0.5 mg/kg	30 mm	
C[C@@H](SCc1nccn1CC(F)F)[C@](O)(Cn1cncn1)c1ccc(F)cc1F (relative stereo) [Compound 54]	0.5 mg/kg	25 mm	

Structure (SMILES)	ED50 ([1]; sc, s.c.)	zone of inhibition at 1000 µg/mL [2, 3]	further results
Cc1nnc(S[C@H](C)[C@](O)(Cn2cncn2)c2ccc(F)cc2F)s1 (relative stereo) [Compound 26]	3.2 mg/kg	45 mm	
Cn1ccnc1CSCCSCC(O)(Cn1cncn1)c1ccc(F)cc1F (centres unmarked) [Compound 17]		25 mm	
CC(C)n1ccnc1CS[C@H](C)[C@](O)(Cn1cncn1)c1ccc(F)cc1F [Compound 102]		35 mm	
Cc1csc(CS[C@H](C)[C@](O)(Cn2cncn2)c2ccc(F)cc2F)n1 (relative stereo) [Compound 37]	1.4 mg/kg	45 mm	
C[C@@H](SCc1nccn1C)[C@](O)(Cn1cncn1)c1ccc(F)cc1F (relative stereo) [16(hydrochloride)]			ED50 ([1]; po, p.o.): 0.71 mg/kg
C[C@@H](SCc1cn(C)cn1)[C@](O)(Cn1cncn1)c1ccc(F)cc1F (relative stereo) [Compound 28]	0.65 mg/kg	40 mm	
C[C@@H](SCc1nncn1C)[C@](O)(Cn1cncn1)c1ccc(F)cc1F (relative stereo) [Compound 33]	0.45 mg/kg	20 mm	
C[C@@H](SCc1nccn1CCF)[C@](O)(Cn1cncn1)c1ccc(F)cc1F (relative stereo) [Compound 48]	0.77 mg/kg	23 mm	
CC(=O)S[C@H](C)[C@](O)(Cn1cncn1)c1ccc(F)cc1F [Compound 45, (2R,3R)-3-acetylthio-2-(2,4-difluorophenyl)-1-(1H-1,2,4-triazol-1-yl)-2-butanol]	0.16 mg/kg	40 mm	ED50 ([1]; po, p.o.): 0.18 mg/kg
C[C@@H](SCc1nccn1C1CC1)[C@](O)(Cn1cncn1)c1ccc(F)cc1F (relative stereo) [Compound 55]	0.5 mg/kg	30 mm	
C[C@@H](SCc1ncn(C)n1)[C@](O)(Cn1cncn1)c1ccc(F)cc1F (relative stereo) [Compound 32]	3.2 mg/kg	40 mm	
O=S(=O)(CCn1cncn1)CC(O)(Cn1cncn1)c1ccc(F)cc1F (centres unmarked) [Compound 3]	32.4 mg/kg		zone of inhibition at 1000 µg/mL [2, 4]: 13 mm
OC(CSCCSCc1ccncc1)(Cn1cncn1)c1ccc(F)cc1F (centres unmarked) [Compound 19]		30 mm	
C[C@@H](SCc1nccs1)[C@](O)(Cn1cncn1)c1ccc(F)cc1F (relative stereo) [38(hydrochloride)]	3.2 mg/kg		
C[C@H]([C@](O)(Cn1cncn1)c1ccc(F)cc1F)S(=O)(=O)CCn1cncn1 (relative stereo) [Compound 14]			zone of inhibition at 1000 µg/mL [2, 4]: 22 mm
CC(SCC(O)(Cn1cncn1)c1ccc(F)cc1F)c1ccncc1 (centres unmarked) [Compound 9]			zone of inhibition at 1000 µg/mL [2, 4]: 21 mm
C[C@@H](SCc1nccn1C(CF)CF)[C@](O)(Cn1cncn1)c1ccc(F)cc1F (relative stereo) [Compound 59]	1.4 mg/kg	30 mm	
Cn1nnnc1SCCSCC(O)(Cn1cncn1)c1ccc(F)cc1F (centres unmarked) [Compound 20]		25 mm	
C[C@@H](SCc1cn2ccccc2n1)[C@](O)(Cn1cncn1)c1ccc(F)cc1F (relative stereo) [27(hydrochloride)]	3.2 mg/kg		
CC(=O)S[C@@H](C)[C@](O)(Cn1cncn1)c1ccc(F)cc1F (relative stereo) [Compound 61]		30 mm	
OC(CSCCSCCn1ccnc1)(Cn1cncn1)c1ccc(F)cc1F (centres unmarked) [Compound 7]			zone of inhibition at 1000 µg/mL [2, 4]: 18 mm
OC(CSCCc1ccncc1)(Cn1cncn1)c1ccc(F)cc1F (centres unmarked) [Compound 8]			zone of inhibition at 1000 µg/mL [2, 4]: 25 mm
CCn1ccnc1CS[C@H](C)[C@](O)(Cn1cncn1)c1ccc(F)cc1F [Compound 101]		38 mm	
OC(CSCCSc1ccncc1)(Cn1cncn1)c1ccc(F)cc1F (centres unmarked) [Compound 24]		25 mm	
CC(SCC(O)(Cn1cncn1)c1ccc(F)cc1F)c1ccncc1 (centres unmarked) [Compound 11]			Inhibition zone diameter [2, 4]: 24 mm
C[C@@H](SCCSCCn1ccnc1)[C@](O)(Cn1cncn1)c1ccc(F)cc1F (relative stereo) [Compound 23]		25 mm	
